These compounds were tested against B-Raf (V600E)-kinase (Homo sapiens, UniProt P15056, V600E) (assay: Kinase test B-Raf (V600E)). Conditions: compound concentration 2 μM; 100% = no inhibition, 0% = total inhibition; read-out: % CTL (residual activity of the enzyme relative to DMSO control).
Assay type: biochemical
Description: In a dilution series 10 μL of test substance solution are placed in a multiwell plate. The dilution series is selected so that generally a range of concentrations of 2 μM to 0.119 nM or 0.017 nM is covered. If necessary the initial concentration of 2 μM is changed to 50 μM, 10 μM or 0.4 μM or 0.2857 μM and further dilution is carried out accordingly. The final concentration of DMSO is 5%. 10 μL of the B-Raf (V600E)-kinase solution are pipetted in (containing 0.5 ng B-Raf (V600E)-kinase in 20 mM Tris-HCl pH 7.5, 0.1 mM EDTA, 0.1 mM EGTA, 0.286 mM sodium orthovanadate, 10% glycerol, 1 mg/mL bovine serum albumin, 1 mM dithiothreitol) and the mixture is incubated for 1 h at RT under with shaking The kinase reaction is started by the addition of 20 μL ATP solution [final concentration: 250 μM ATP, 30 mM Tris-HCl pH 7.5, 0.02% Brij, 0.2 mM sodium orthovanadate, 10 mM magnesium acetate, 0.1 mM EGTA, phosphatase cocktail (Sigma, # P2850, dilution recommended by the manufacturer), 0.1 mM EGTA] and 10 μL MEK1 solution [containing 50 ng biotinylated MEK1 (prepared from purified MEK1 according to standard procedure, e.g. with EZ-Link Sulpho-NHS-LC-Biotin reagent, Pierce, # 21335) and carried out for 60 min at RT with constant shaking. The reaction is stopped by the addition of 12 μL of a 100 mM EDTA solution and incubation is continued for a further 5 min. 55 μL of the reaction solution are transferred into a streptavidin-coated plate (e.g. Streptawell HighBond, Roche, #11989685001) and shaken gently for 1 h at RT, in order to bind biotinylated MEK1 to the plate. After elimination of the liquid the plate is washed five times with 200 μL of 1×PBS and 100 μL solution of primary antibody plus europium-labelled secondary antibody [Anti Phospho-MEK (Ser217/221), Cell Signaling, # 9121 and Eu-N1 labeled goat-anti-rabbit antibody, Perkin Elmer, #AD0105], the primary antibody is diluted 1:2000 and the secondary antibody is diluted to 0.4-0.5 μg/mL in Delfia Assay Buffer (Perkin Elmer, #1244-111). After 1 h shaking at RT the solution is poured away and washed five times with 200 μL Delfia Wash Buffer (Perkin Elmer, #4010-0010/#1244-114). After the addition of 200 μL Enhancement Solution (Perkin Elmer, #4001-0010/#1244-105) the mixture is shaken for 10 min at RT and then measured in a Wallac Victor using the program “Delfia Time Resolved Fluorescence (Europium)”. IC50 values are obtained from these dosage-activity curves using a software program (GraphPadPrizm).
A value of 100% indicates no inhibition while a value of 0% indicates total inhibition. The % CTL values denote the residual activity of the enzyme after the addition of the inhibitory compound in the solvent DMSO in relation to the enzyme activity in the solvent DMSO without the addition of a compound (control). The values were determined using the B-Raf(V600E)-kinase test described above.

Chain of B-Raf (V600E)-kinase (P15056 whole entry V600E): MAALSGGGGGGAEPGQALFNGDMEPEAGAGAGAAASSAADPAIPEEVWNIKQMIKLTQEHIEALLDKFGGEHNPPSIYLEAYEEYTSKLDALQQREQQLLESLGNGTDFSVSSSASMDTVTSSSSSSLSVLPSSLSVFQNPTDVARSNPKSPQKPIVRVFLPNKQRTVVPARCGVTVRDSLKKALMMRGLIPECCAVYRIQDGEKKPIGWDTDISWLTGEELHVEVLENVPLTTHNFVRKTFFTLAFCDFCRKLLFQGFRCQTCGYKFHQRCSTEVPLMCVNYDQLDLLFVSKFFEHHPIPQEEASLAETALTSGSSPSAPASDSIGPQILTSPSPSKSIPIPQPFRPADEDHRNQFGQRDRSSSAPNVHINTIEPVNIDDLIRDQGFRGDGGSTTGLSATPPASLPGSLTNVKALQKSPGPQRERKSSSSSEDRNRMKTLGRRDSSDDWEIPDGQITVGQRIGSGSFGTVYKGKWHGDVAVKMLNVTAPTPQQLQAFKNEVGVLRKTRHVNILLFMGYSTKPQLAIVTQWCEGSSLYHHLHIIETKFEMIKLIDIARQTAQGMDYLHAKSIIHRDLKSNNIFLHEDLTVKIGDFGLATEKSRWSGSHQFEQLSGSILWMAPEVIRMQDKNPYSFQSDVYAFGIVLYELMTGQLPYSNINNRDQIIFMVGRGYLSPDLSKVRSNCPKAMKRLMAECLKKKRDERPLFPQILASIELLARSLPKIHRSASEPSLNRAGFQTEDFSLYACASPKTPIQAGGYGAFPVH

| remaining activity at 2 µM | SMILES |
| --- | --- |
| 3.1% | CCCN1CCN(c2cncc(-c3cn(-c4cc(NC(=O)c5cc(C(F)(F)F)ccn5)cnc4C)nn3)c2)CC1 [XII-41] |
| 3.1% | COc1c(CN2CCCC2)cc(NC(=O)c2cnc(C)c(-n3cc(-c4cnn(C)c4C)nn3)c2)cc1C(F)(F)F [Example I-116] |
| 7.7% | Cc1ncc(C(=O)Nc2cc(C(C)(C)C)on2)cc1-n1cc(-c2cncc(N3CCN(CC(C)C)CC3)c2)nn1 [Example I-171] |
| 2.9% | COc1ccc(C(=O)Nc2cnc(C)c(-n3cc(-c4cncc(N5CCN(C(C)(C)C)CC5)c4)nn3)c2)cc1C(F)(F)F [XII-45] |
| 1.7% | Cc1ncc(C(=O)Nc2cc(C(C)(C)C)nn2C)cc1-n1cc(-c2cnn(C)c2C)nn1 [Example I-4] |
| 1.2% | Cc1ncc(C(=O)Nc2cc(C3=CCN(C)CC3)c(C)c(C(F)(F)F)c2)cc1-n1cc(-c2cnn(C)c2C)nn1 [Example I-125] |
| 2.1% | Cc1ncc(C(=O)Nc2cc(C(C)(C)C)on2)cc1-n1cc(-c2cncc(N(C)CCN(C)C)c2)nn1 [Example I-141] |
| 9.8% | Cc1ncc(C(=O)Nc2cc(C(C)(C)C)on2)cc1-n1cc(-c2cncc(N3CCN(CCCO)CC3)c2)nn1 [Example I-168] |
| 2.3% | Cc1ncc(NC(=O)c2cccc(C(C)(C)C#N)c2)cc1-n1cc(-c2cncc(N3CCN(CC4CC4)CC3)c2)nn1 [XII-49] |
| 2.9% | Cc1ncc(C(=O)Nc2cc(C(C)(C)C)no2)cc1-n1cc(-c2cncc(N3CCN(C)CC3)c2)nn1 [Example I-180] |
| 2.9% | Cc1ncc(C(=O)Nc2cc(N3CCN(C)CC3)c(C)c(C(F)(F)F)c2)cc1-n1cc(-c2cncnc2)nn1 [Example I-67] |
| 2.6% | Cc1ncc(C(=O)Nc2cc(C(F)(F)F)cc(N3CCCOCC3)c2C)cc1-n1cc(-c2cnn(C)c2C)nn1 [Example I-118] |
| 1.4% | CC(=O)Nc1ncc(-c2cn(-c3cc(C(=O)Nc4cc(C(F)(F)F)ccn4)cnc3C)nn2)s1 [Example I-14] |
| 3% | Cc1ncc(C(=O)Nc2cc(C(F)(F)F)cc(Br)c2C)cc1-n1cc(-c2cnn(C)c2C)nn1 [Example I-100] |
| 2.1% | Cc1ncc(C(=O)Nc2cc(C(C)(C)C)on2)cc1-n1cc(-c2cncc(N3CCN(CC(F)(F)F)CC3)c2)nn1 [Example I-182] |
| 5.7% | Cc1ncc(C(=O)Nc2cc(C3=CCNCC3)c(C)c(C(F)(F)F)c2)cc1-n1cc(-c2cnn(C)c2C)nn1 [Example I-126] |
| 1.9% | Cc1ncc(C(=O)Nc2cc(C(F)(F)F)ccn2)cc1-n1cc(-c2cncc(N3CCN(C)CC3)c2)nn1 [Example I-144] |
| 2.2% | Cc1ncc(C(=O)Nc2cc(C(C)(C)C)on2)cc1-n1cc(-c2cncc(N3CCN(C(C)C)CC3)c2)nn1 [Example I-140] |
| 7.2% | Cc1ncc(C(=O)Nc2cc(N(C)CCN(C)C)cc(C(F)(F)F)c2)cc1-n1cc(-c2cnn(C)c2C)nn1 [Example I-60] |
| 4.1% | Cc1ncc(C(=O)Nc2cnn(C(C)C)c2)cc1-n1cc(-c2cncc(N3CCN(C(C)C)CC3)c2)nn1 [Example I-150] |
| 6.6% | Cc1ccc(C(F)(F)F)cc1C(=O)Nc1cnc(C)c(-n2cc(-c3cnn(C)c3C)nn2)c1 [XII-9] |
| 1.5% | CCN1CCN(Cc2cncc(-c3cn(-c4cc(C(=O)Nc5cc(C(C)(C)C)on5)cnc4C)nn3)c2)CC1 [Example I-188] |
| 4.7% | Cc1ncc(NC(=O)c2cccc(C(C)(C)C#N)c2)cc1-n1cc(-c2cnn(C)c2C)nn1 [XII-6] |
| 6.4% | Cc1ncc(C(=O)Nc2cc(N3CCCCC3)c(C)c(C(F)(F)F)c2)cc1-n1cc(-c2cnn(C)c2C)nn1 [Example I-66] |

| remaining activity at 2 µM | SMILES |
| --- | --- |
| 1.4% | CC(=O)Nc1ncc(-c2cn(-c3cc(C(=O)Nc4cc(CN5CCCC5)cc(C(F)(F)F)c4)cnc3C)nn2)s1 [Example I-15] |
| 1.2% | Cc1ncc(C(=O)Nc2cc(CNC(C)C)c(Cl)c(C(F)(F)F)c2)cc1-n1cc(-c2cnn(C)c2C)nn1 [Example I-54] |
| 3.6% | Cc1cn(-c2cc(NC(=O)c3cnc(C)c(-n4cc(-c5cncnc5)nn4)c3)cc(C(F)(F)F)c2)cn1 [Example I-79] |
| 1.9% | Cc1ncc(C(=O)Nc2cc(C(C)(C)C)on2)cc1-n1cc(-c2cncc(CN3CC[C@@H](F)C3)c2)nn1 [Example I-192] |
| 7.2% | Cc1ncc(-c2cn(-c3cc(NC(=O)c4cc(OC(F)(F)F)cc(N5CCN(C)CC5)c4)cnc3C)nn2)s1 [XII-23] |
| 4.3% | Cc1ncc(NC(=O)c2cccc(OC(F)(F)F)c2)cc1-n1cc(-c2cncc(N3CCN(C(C)C)CC3)c2)nn1 [XII-42] |
| 1.6% | Cc1ncc(NC(=O)c2cc(OC(F)(F)F)cc(N3CCC(N(C)C)C3)c2)cc1-n1cc(-c2cnn(C)c2C)nn1 (stereo not shown) [XII-29] |
| 2.1% | COc1cncc(-c2cn(-c3cc(C(=O)Nc4cc(CN5CCCC5)c(Cl)c(C(F)(F)F)c4)cnc3C)nn2)c1 [Example I-90] |
| 2% | Cc1ncc(NC(=O)c2cc(OC(F)(F)F)cc(N(C)C3CCN(C)C3)c2)cc1-n1cc(-c2cnn(C)c2C)nn1 (stereo not shown) [XII-28] |
| 0.8% | Cc1ncc(C(=O)Nc2cc(C(C)(C)C)on2)cc1-n1cc(-c2cncc(N3CCC4(CCN(C)CC4)CC3)c2)nn1 [Example I-195] |
| 3.8% | COCCN1CCN(c2cc(OC(F)(F)F)cc(C(=O)Nc3cnc(C)c(-n4cc(-c5cnn(C)c5C)nn4)c3)c2)CC1 [XII-24] |
| 1.7% | Cc1ncc(C(=O)Nc2cc(C(C)(C)C)on2)cc1-n1cc(-c2cncc(CN3CCCC3)c2)nn1 [Example I-185] |
| 4.7% | CCNc1cc(NC(=O)c2cnc(C)c(-n3cc(-c4cnn(C)c4C)nn3)c2)cc(C(F)(F)F)c1C [Example I-68] |
| 2.1% | CCN1CCN(c2cncc(-c3cn(-c4cc(NC(=O)c5cc(C(F)(F)F)ccn5)cnc4C)nn3)c2)CC1 [XII-38] |
| 1.4% | COc1ccc(NC(=O)c2cnc(C)c(-n3cc(-c4cnc5cnc(C)cn45)nn3)c2)cc1C(F)(F)F [Example I-33] |
| 3.4% | COCCN(C)Cc1cc(NC(=O)c2cnc(C)c(-n3cc(-c4cnn(C)c4C)nn3)c2)cc(C(F)(F)F)c1OC [Example I-96] |
| 8.4% | COCCCN1CCN(c2cncc(-c3cn(-c4cc(C(=O)Nc5cc(C(C)(C)C)on5)cnc4C)nn3)c2)CC1 [Example I-169] |
| 2% | CCN1CCN(c2cc(NC(=O)c3cnc(C)c(-n4cc(-c5ccc(NC(C)=O)nc5)nn4)c3)cc(C(F)(F)F)c2C)CC1 [Example I-47] |
| 2.4% | COCCCN1CCN(c2cncc(-c3cn(-c4cc(NC(=O)c5cccc(OC(F)(F)F)c5)cnc4C)nn3)c2)CC1 [XII-48] |
| 2.4% | Cc1ncc(C(=O)Nc2cc(C(C)(C)C)on2)cc1-n1cc(-c2cncc(N(C)C3CCOC3)c2)nn1 (stereo not shown) [Example I-38] |
| 8.9% | Cc1ncc(C(=O)Nc2cc(C(C)(C)C)on2)cc1-n1cc(-c2cncc(N3CCN(C4CC4)CC3)c2)nn1 [Example I-165] |
| 0.9% | Cc1ncc(NC(=O)c2cccc(C(C)(C)C#N)c2)cc1-n1cc(-c2cncc(CN3CCCC3)c2)nn1 [XII-65] |
| 3.4% | CCN1CCN(c2cc(OC(F)(F)F)cc(C(=O)Nc3cnc(C)c(-n4cc(-c5cnn(C)c5C)nn4)c3)c2)CC1 [XII-22] |

Same assay, conditions: measurement at 0.29 μM (*); 100% = no inhibition, 0% = total inhibition; read-out: % CTL (residual activity of the enzyme relative to DMSO control)

| remaining activity at 0.29 µM | SMILES |
| --- | --- |
| 2% | CC(=O)Nc1ncc(-c2cn(-c3cc(C(=O)Nc4cc(N5CCN(C)CC5)cc(C(F)(F)F)c4)cnc3C)nn2)s1 [Example I-16] |

Same assay, conditions: measurement at 1.43 μM (***); 100% = no inhibition, 0% = total inhibition; read-out: % CTL (residual activity of the enzyme relative to DMSO control)

| remaining activity at 1.43 µM | SMILES |
| --- | --- |
| 1.3% | Cc1ncc(C(=O)Nc2cc(C(F)(F)F)cc(N3CCN(C)CC3)c2C)cc1-n1cc(-c2cnn(C)c2C)nn1 [Example I-101] |

— US8778929B2, “Substituted heteroaryl inhibitors of B-RAF” (Boehringer Ingelheim International GmbH, priority 2008, dated 2014)
